Here are results for twelve compounds from ChEMBL document CHEMBL1201862, “PubChem BioAssay data set” (2004).

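Method: 48-hour compound exposure of cells in 96-well plates, five concentrations, linear interpolation of endpoints. The concentration for 50% growth inhibition is given as GI50.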 The source made the active and inactive calls. Cut-off read from the data, not from the text of the source: active = GI50 up to about 1.1 µM and inactive = higher. Where only a bound is given, the exact number is not on record here.

Test systems include Malme-3M; UO-31; K562; DMS-273; NCI-H226; SF-539; SK-MEL-2; HT-29; CCRF-CEM; MOLT-4; OVCAR-8; A498; HCC 2998; HCT-15; ACHN; SF-268; SK-OV-3; T47D; MCF7; BT-549.
Common to all, as to test: DTP human tumour cell line panel, 48 h

One may read the GI50 as the concentration that inhibits growth by half.

For `OCCN(CCO)c1ncnc2c1sc(=S)n2-c1ccccc1`, the GI50 in the experiment with Malme-3M, with UO-31, in the experiment on K562, in the experiment on DMS-273, with NCI-H226 and in the experiment with SF-539 was > 100 µM (inactive) each time. Also, the GI50 in the experiment on SK-MEL-2 was > 100 µM (inactive); in the experiment with HT-29, > 100 µM (inactive); with CCRF-CEM, > 100 µM (inactive); in the experiment on MOLT-4 it was > 100 µM (inactive); in the experiment on OVCAR-8, > 100 µM (inactive); with A498, 46 µM (inactive). In addition, the GI50 in the experiment with HCC 2998 is > 100 µM (inactive); with HCT-15, more than 100 µM; with ACHN, > 100 µM (inactive); in the experiment with SF-268, > 100 µM (inactive); in the experiment with SK-OV-3, > 100 µM (inactive).
For the compound `NCCNc1cccc2ccccc12`, the GI50 in the experiment with Malme-3M, in the experiment on UO-31, in the experiment with DMS-273, in the experiment with NCI-H226, in the experiment on SF-539 and in the experiment on SK-MEL-2 was > 100 µM (inactive) each time. For the same compound, the GI50 in the experiment on HT-29 is > 100 µM (inactive); in the experiment on OVCAR-8 it was > 100 µM (inactive); in the experiment with A498, > 100 µM (inactive); with HCC 2998 it was > 100 µM (inactive); in the experiment on HCT-15, more than 100 µM; with ACHN, > 100 µM (inactive). Moreover, the GI50 in the experiment on SF-268 and in the experiment with SK-OV-3 was > 100 µM (inactive) throughout.
`CCOC(=O)C1=C(C)N(NC(=O)Nc2ccccc2)C2(N)N(NC(=O)Nc3ccccc3)C(C)=C(C(=O)OCC)C12C#N` (centres undefined): the GI50 was 15.5 µM (inactive) with Malme-3M; > 100 µM (inactive) with UO-31; 20 µM (inactive) in the experiment on K562; 17 µM (inactive) with DMS-273; 18.4 µM (inactive) with NCI-H226; 16.1 µM (inactive) in the experiment on SK-MEL-2. Besides, the GI50 in the experiment with HT-29 is 20.7 µM (inactive); in the experiment on CCRF-CEM, 28.2 µM (inactive); in the experiment with MOLT-4, 21.6 µM (inactive); in the experiment on OVCAR-8, 18.5 µM (inactive); in the experiment on A498, 22.3 µM (inactive); with HCC 2998 it was 19.2 µM (inactive). In addition, the GI50 is 19.4 µM with HCT-15, 21 µM (inactive) in the experiment on ACHN, 19.9 µM (inactive) in the experiment with SF-268 and 25.5 µM (inactive) with SK-OV-3.
Turning to `CCOC(=O)NC(=O)c1cn(CCCOC(=O)CCCCCCCCC(=O)OCCCn2cc(C(=O)NC(=O)OCC)c(=O)n(C)c2=O)c(=O)n(C)c1=O`, the GI50 in the experiment on T47D, in the experiment on Malme-3M, in the experiment with UO-31, in the experiment on K562, in the experiment on DMS-273 and with NCI-H226 was > 100 µM (inactive) in each case. In addition, the GI50 in the experiment on SF-539 was > 68.7 µM (inactive); with SK-MEL-2, 97.1 µM (inactive); in the experiment on HT-29, > 100 µM (inactive); in the experiment on CCRF-CEM it was > 46.5 µM (inactive); in the experiment with MOLT-4 it was > 100 µM (inactive); with OVCAR-8, > 79.4 µM (inactive). The GI50 with A498 was > 100 µM (inactive); in the experiment on HCC 2998, > 100 µM (inactive); in the experiment on HCT-15, more than 100 µM; with ACHN, > 100 µM (inactive); in the experiment on SF-268, > 100 µM (inactive); with MCF7, > 100 µM (inactive). The GI50 in the experiment with SK-OV-3 and with BT-549 was > 100 µM (inactive) throughout.
For `Cc1nc(O)nc(CC(O)(c2ccccc2)c2ccccc2)c1-c1ccccc1`, the GI50 was > 100 µM (inactive) with Malme-3M; 50.1 µM (inactive) in the experiment on UO-31; > 100 µM (inactive) in the experiment with K562; > 100 µM (inactive) with DMS-273; > 100 µM (inactive) in the experiment on NCI-H226; > 100 µM (inactive) with SF-539. Also, the GI50 in the experiment with SK-MEL-2, with HT-29, in the experiment with CCRF-CEM, with MOLT-4, in the experiment on OVCAR-8 and with A498 was > 100 µM (inactive) throughout. The GI50 is > 100 µM (inactive) in the experiment on HCC 2998; more than 100 µM in the experiment with HCT-15; > 100 µM (inactive) with ACHN; > 100 µM (inactive) in the experiment on SF-268; > 100 µM (inactive) in the experiment with SK-OV-3.
As for `Cc1ccc(/C=C/C(=O)c2sc(-c3cccnc3)nc2C)cc1`, the GI50 in the experiment with Malme-3M, with UO-31, in the experiment on K562, in the experiment with DMS-273, in the experiment with NCI-H226 and in the experiment on SF-539 was > 100 µM (inactive) each time. For the same compound, the GI50 in the experiment with SK-MEL-2, in the experiment on HT-29, with CCRF-CEM, with MOLT-4, with OVCAR-8 and in the experiment on A498 was > 100 µM (inactive) throughout. Also, the GI50 is > 100 µM (inactive) in the experiment on HCC 2998, more than 100 µM with HCT-15, > 100 µM (inactive) with ACHN and > 100 µM (inactive) with SK-OV-3.
As to `CCN(CCCl)CCCCCNc1c2ccccc2nc2ccc(OC)cc12`, the GI50 with Malme-3M is 2.04 µM (inactive); with UO-31, 2.88 µM (inactive); in the experiment on K562, 0.149 µM (active); with DMS-273 it was 0.184 µM (active); in the experiment with NCI-H226, 0.321 µM (active); in the experiment on SF-539, 1.04 µM (active). In addition, the GI50 in the experiment with SK-MEL-2 is 1.09 µM (active); in the experiment with HT-29, 0.259 µM (active); in the experiment with CCRF-CEM it was 0.0857 µM (active); in the experiment with MOLT-4 it was 0.0155 µM (active); in the experiment on OVCAR-8, 0.533 µM (active); in the experiment with A498 it was 1.26 µM (inactive). The concentration for 50% growth inhibition (GI50) in the experiment with HCC 2998 is 1.04 µM (active); in the experiment with HCT-15, 1.3 µM; in the experiment on ACHN, 0.47 µM (active); with SF-268, 0.597 µM (active); in the experiment on SK-OV-3, 1.47 µM (inactive).
`N=C(NNS(=O)(=O)c1ccccc1)Oc1ccc(Br)cc1Br`: the GI50 in the experiment on Malme-3M is > 100 µM (inactive); in the experiment with UO-31, > 100 µM (inactive); in the experiment on K562 it was 90.6 µM (inactive); with DMS-273, > 100 µM (inactive); in the experiment on NCI-H226 it was 73.5 µM (inactive); in the experiment with SF-539, > 100 µM (inactive). Also, the GI50 with SK-MEL-2 was > 100 µM (inactive); with HT-29, 55.7 µM (inactive); in the experiment on CCRF-CEM, 71.4 µM (inactive); with MOLT-4, > 100 µM (inactive); in the experiment on OVCAR-8, > 100 µM (inactive); with A498, > 100 µM (inactive). Besides, the GI50 in the experiment with HCC 2998 is > 100 µM (inactive); in the experiment on HCT-15, more than 100 µM; in the experiment on ACHN it was > 100 µM (inactive); in the experiment on SF-268, > 100 µM (inactive); with SK-OV-3, > 100 µM (inactive).
With `CCOC(=O)[C@H]1Nc2ccc(OC)cc2C2c3ccccc3CC21` (some centres undefined), the GI50 with Malme-3M, in the experiment on UO-31, with K562, in the experiment on DMS-273, with NCI-H226 and in the experiment with SF-539 was > 100 µM (inactive) in each case. The GI50 is > 100 µM (inactive) in the experiment on SK-MEL-2; > 100 µM (inactive) with HT-29; > 100 µM (inactive) in the experiment with MOLT-4; > 100 µM (inactive) in the experiment on OVCAR-8; > 100 µM (inactive) in the experiment on A498; 46.8 µM (inactive) with HCC 2998. In addition, the results for the GI50 in the experiment on HCT-15, with ACHN and with SF-268 were more than 100 µM, > 100 µM (inactive) and > 100 µM (inactive), respectively.
Take `CN(C)CCSc1nccc(-c2cc3ccccc3s2)n1`: the GI50 in the experiment on Malme-3M is 19.5 µM (inactive); with UO-31 it was 19.1 µM (inactive); in the experiment on DMS-273, 15.9 µM (inactive); in the experiment with NCI-H226, 14.9 µM (inactive); in the experiment with SF-539 it was 18.2 µM (inactive); with SK-MEL-2 it was 17.3 µM (inactive). Also, the GI50 in the experiment on HT-29 is 9.06 µM (inactive); in the experiment with CCRF-CEM, 20 µM (inactive); in the experiment with MOLT-4 it was 26.2 µM (inactive); in the experiment with OVCAR-8, 22.3 µM (inactive); with A498, 20.1 µM (inactive); in the experiment on HCC 2998 it was 15.7 µM (inactive). Besides, the GI50 is 18.6 µM with HCT-15 and 37.3 µM (inactive) in the experiment on SK-OV-3.
Take `COc1cc(C2c3cc4c(cc3[C@@H](Nc3cccc(O)c3)C3COC(=O)[C@H]23)OCO4)cc(OC)c1O` (some centres undefined): the GI50 was 2.24 µM (inactive) with T47D; 2.3 µM (inactive) in the experiment with Malme-3M; 1.57 µM (inactive) in the experiment with UO-31; 1.69 µM (inactive) in the experiment on K562; 0.887 µM (active) with DMS-273; 0.771 µM (active) in the experiment on NCI-H226. For the same compound, the GI50 with SF-539 is 1.14 µM (inactive); in the experiment with SK-MEL-2 it was 5.2 µM (inactive); with HT-29, 3.33 µM (inactive); with CCRF-CEM, 0.425 µM (active); in the experiment on MOLT-4, 0.0359 µM (active); with OVCAR-8, 2 µM (inactive). For the same compound, the GI50 is 1.62 µM (inactive) in the experiment on A498; 3.58 µM (inactive) with HCC 2998; 1.93 µM in the experiment on HCT-15; 0.668 µM (active) with ACHN; 1.89 µM (inactive) in the experiment with SF-268; 0.46 µM (active) with MCF7. Further, the GI50 in the experiment with SK-OV-3 was 4.61 µM (inactive); with BT-549, 1.91 µM (inactive).
Take `[N-]=[N+]=NC12CC3C4CC5CC3C(C1)C(C5)C4C2`: the GI50 in the experiment with Malme-3M, in the experiment with UO-31, with K562, with DMS-273, in the experiment with NCI-H226 and with SF-539 was > 100 µM (inactive) throughout. Moreover, the GI50 in the experiment on SK-MEL-2, in the experiment on HT-29, with CCRF-CEM, in the experiment with MOLT-4, with OVCAR-8 and with A498 was > 100 µM (inactive) each time. The GI50 in the experiment on HCC 2998, in the experiment with ACHN, with SF-268 and in the experiment on SK-OV-3 was > 100 µM (inactive) throughout.
